Experimental data: paper PMC7251123, “CX-5461 activates the DNA damage response and demonstrates therapeutic efficacy in high-grade serous ovarian cancer” (Nature Communications, 2020)
pIC50: −log10 of the molar value. Values joined by “and” are separate entries in the source; they are usually repeats but may differ in a detail not shown here. Equal values may be shown once. Read-outs that look alike come from different tables or passages of the source.

Experiments:
Pol I transcription = assay: Inhibition of Pol I transcription: 47S precursor rRNA levels by quantitative RT-PCR after 1 h treatment; assay type: cell-based, human; conditions: for 47S precursor rRNA level, fold change relative to vehicle-treated controls: individual replicates; for pIC50: Homo sapiens
Protocol: Fig. 1 Sensitivity of ovarian cancer (OVCA) cell lines to CX-5461. a CX-5461 doses that induce 50% growth inhibition (GI50) at 48 hours. Error bars represent mean ± standard deviation (SD). Asterisks denote mutated TP53 status. […] Information regarding each cell lines source, mean G1_50 values, SD and N values are outlined in Supplementary Table 1. […] Statistical analysis was performed using a two-sided Mann–Whitney test. Error bars represent mean ± SD. c Baseline rDNA transcription rates of OVCA cell lines (listed in (d)), as determined by quantitative real-time PCR (qRT-PCR) analysis using primers specific to the external transcribed spacer 5’ETS (+413–521 bp) relative to the transcription start site (TSS). Expression levels in each cell line were normalised to Vimentin mRNA and expressed as fold change relative to TOV112D cells. Each dot represents the mean value of n = 3 biologically independent experiments per cell line (Individual data points are provided in Supplementary Data 4). Error bars represent mean ± SD. Statistical analysis was performed using a two-tailed unpaired t test. d Dose-response curves of 47S precursor rRNA levels measured by quantitative RT-PCR. OVCA cell lines were treated with vehicle or increasing drug concentrations of CX-5461 (0.001, 0.01, 0.03, 0.1, 0.3, 1 and 3 μM) for 1 h before RNA was harvested. Expression levels were normalised to Vimentin mRNA and expressed as fold change relative to vehicle-treated controls. Shown are the mean of n = 3 independent biological experiments for each cell line. (Individual data points are provided in Supplementary Data 4). e The mean inhibitory concentration values that led to 50% transcription inhibition (IC50) (of n = 3 biologically independent experiments for each cell line) from D are presented (Individual data points are provided in Supplementary Data 4). Error bars represent mean ± SD. Statistical analysis was performed using a two-sided Mann–Whitney test.
For Reverse-transcription qPCR analysis, cells were lysed, RNA extracted, and first-strand cDNA synthesized using random hexamer primers (Promega, C1181) and Superscript III (Invitrogen,18080044). Quantitative PCR (qPCR) was performed in duplicate using the FAST SYBR Green dye (Applied Biosystems, 4385610) on the StepOnePlus real-time PCR system (Applied Biosystems). Primer sequences are listed in (Supplementary Table 3).
Dose-response curves of 4 7S precursor rRNA levels (Figure 1D) measured by quantitative RT-PCR after 1h treatment. Expression levels
were normalised to Vimentin mRNA and expressed as fold change relative to vehicle-treated controls.
IC50 doses (Figure 1E) were determined from dose response curves in Figure 1D
using GraphPad Prism version 8.

OV90 = assay: Cell proliferation dose response (IncuCyte ZOOM), 48 h; assay type: cell-based; conditions: Homo sapiens, OV-90; OV90, 48 h; read-out: GI50 (concentration inducing 50% reduction in cell proliferation)
Protocol: (§1) The in vitro effects of CX-5461 on human OVCA cells were evaluated using a panel of 32 established human OVCA cell lines. These cell lines were selected to be representative of a range of histologic OVCA subtypes (Supplementary Table 1). Increasing concentrations (1 nM–10 μM) of CX-5461 were used to assess the concentration of drug that induced a 50% reduction in cell proliferation (GI50) at 48 hours (h). […] There was no statistically significant correlation between TP53 mutation status and sensitivity to CX-5461 (Supplementary Table 1, Fig. 1b). The efficacy of growth inhibition by CX-5461 correlated with a higher rate of basal rDNA transcription in the sensitive compared with the resistant OVCA cell lines (Fig. 1c).
(§2) Fig. 1 Sensitivity of ovarian cancer (OVCA) cell lines to CX-5461. a CX-5461 doses that induce 50% growth inhibition (GI50) at 48 hours. Error bars represent mean ± standard deviation (SD). […]
(§3) For assessing OVCA cells’ sensitivity to CX-5461, dose response curves were generated for each cell line by plating cells in 96-well plates, culturing them for 24 hours and then treating them with either vehicle or increasing concentrations of drug (0, 0.001, 0.003, 0.01, 0.03, 0.1, 0.3, 1, 3, 10 and 30 μM CX-5461) for 48 h. Cell number was assessed using the IncuCyte ZOOM imaging system (Essen BioScience). […] During this time the degree of confluency was measured every 24 h. […]

OVCAR3 = assay: as above; assay type: cell-based; conditions: Homo sapiens, OVCAR-3; OVCAR3, 48 h; read-out: GI50 (concentration inducing 50% reduction in cell proliferation)
Protocol: as §1, §2, §3

## Cc1cnc(CNC(=O)c2c(=O)c3ccc(N4CCCN(C)CC4)nc3n3c2sc2ccccc23)cn1 [CX-5461]
Pol I transcription; A2780, CX-5461 0.00000001 M, 1 h
  47S precursor rRNA level, fold change relative to vehicle-treated controls: 1.227 and 1.156 and 0.5552
Pol I transcription; A2780, CX-5461 0.00000003 M, 1 h
  47S precursor rRNA level, fold change relative to vehicle-treated controls: 1.079 and 0.6056 and 0.5354
Pol I transcription; A2780, CX-5461 0.0000001 M, 1 h
  47S precursor rRNA level, fold change relative to vehicle-treated controls: 0.7784 and 0.3051 and 0.7248
Pol I transcription; A2780, CX-5461 0.0000003 M, 1 h
  47S precursor rRNA level, fold change relative to vehicle-treated controls: 0.4946 and 0.2868 and 0.2848
Pol I transcription; A2780, CX-5461 0.000001 M, 1 h
  47S precursor rRNA level, fold change relative to vehicle-treated controls: 0.1884 and 0.1928 and 0.2616
Pol I transcription; A2780, CX-5461 0.000003 M, 1 h
  47S precursor rRNA level, fold change relative to vehicle-treated controls: 0.1746 and 0.05092 and 0.1316
Pol I transcription; A2780, CX-5461 1E-09 M, 1 h
  47S precursor rRNA level, fold change relative to vehicle-treated controls: 1.211 and 0.7921 and 0.6449
Pol I transcription; EFO21, CX-5461 0.00000001 M, 1 h
  47S precursor rRNA level, fold change relative to vehicle-treated controls: 1.115 and 1.095 and 1.792
Pol I transcription; EFO21, CX-5461 0.00000003 M, 1 h
  47S precursor rRNA level, fold change relative to vehicle-treated controls: 1.11 and 1.692 and 0.987
Pol I transcription; EFO21, CX-5461 0.0000001 M, 1 h
  47S precursor rRNA level, fold change relative to vehicle-treated controls: 0.7444 and 0.9773 and 0.668
Pol I transcription; EFO21, CX-5461 0.0000003 M, 1 h
  47S precursor rRNA level, fold change relative to vehicle-treated controls: 0.2419 and 0.3103 and 0.414
Pol I transcription; EFO21, CX-5461 0.000001 M, 1 h
  47S precursor rRNA level, fold change relative to vehicle-treated controls: 0.2002 and 0.2399 and 0.3839
Pol I transcription; EFO21, CX-5461 0.000003 M, 1 h
  47S precursor rRNA level, fold change relative to vehicle-treated controls: 0.1871 and 0.2673 and 0.0006867
Pol I transcription; EFO21, CX-5461 1E-09 M, 1 h
  47S precursor rRNA level, fold change relative to vehicle-treated controls: 1.492 and 1.313 and 0.8129
Pol I transcription; 1 h, 2008, 1 h, mean n=3, read-out: IC50 Pol I transcription
  pIC50: 7.31
Pol I transcription; 1 h, ES2, 1 h, mean n=3, read-out: IC50 Pol I transcription
  pIC50: 7.26
Pol I transcription; 1 h, JHOC9, 1 h, mean n=3, read-out: IC50 Pol I transcription
  pIC50: 6.57
Pol I transcription; 1 h, JHOM1, 1 h, mean n=3, read-out: IC50 Pol I transcription
  pIC50: 6.70
Pol I transcription; 1 h, KURAMOCHI, 1 h, mean n=3, read-out: IC50 Pol I transcription
  pIC50: 7.32
Pol I transcription; 1 h, RMG2, 1 h, mean n=3, read-out: IC50 Pol I transcription
  pIC50: 6.95
Pol I transcription; 1 h, sensitive and resistant OVCA cell lines, 1 h treatment, read-out: IC50 (concentration inhibiting Pol I transcription by 50%), range over cell lines
  pIC50: 6.55 to 7.42
Pol I transcription; A2780, 1 h, mean n=3, read-out: IC50 Pol I transcription
  pIC50: 7.20
Pol I transcription; COLO 704, 1 h, COLO704, 1 h, mean n=3, read-out: IC50 Pol I transcription
  pIC50: 7.01
Pol I transcription; EFO-21, 1 h, EFO21, 1 h, mean n=3, read-out: IC50 Pol I transcription
  pIC50: 7.18
Pol I transcription; IGROV-1, 1 h, IGROV1, 1 h, mean n=3, read-out: IC50 Pol I transcription
  pIC50: 7.42
Pol I transcription; OV-90, 1 h, OV90, 1 h, mean n=3, read-out: IC50 Pol I transcription
  pIC50: 6.93
Pol I transcription; OVCAR-3, 1 h, OVCAR3, 1 h, mean n=3, read-out: IC50 Pol I transcription
  pIC50: 7.17
Pol I transcription; OVCAR-4, 1 h, OVCAR4, 1 h, mean n=3, read-out: IC50 Pol I transcription
  pIC50: 7.05
Pol I transcription; OVCAR-8, 1 h, OVCAR8, 1 h, mean n=3, read-out: IC50 Pol I transcription
  pIC50: 7.01
Pol I transcription; TOV112D, 1 h, TOV112D, 1 h, mean n=3, read-out: IC50 Pol I transcription
  pIC50: 6.87
Pol I transcription; JHOC9, CX-5461 0.00000001 M, 1 h
  47S precursor rRNA level, fold change relative to vehicle-treated controls: 0.9254 and 0.9049 and 1.002
Pol I transcription; JHOC9, CX-5461 0.00000003 M, 1 h
  47S precursor rRNA level, fold change relative to vehicle-treated controls: 1.057 and 1.034 and 0.8359
Pol I transcription; JHOC9, CX-5461 0.0000001 M, 1 h
  47S precursor rRNA level, fold change relative to vehicle-treated controls: 0.8119 and 0.7939 and 0.6945
Pol I transcription; JHOC9, CX-5461 0.0000003 M, 1 h
  47S precursor rRNA level, fold change relative to vehicle-treated controls: 0.5763 and 0.5636 and 0.384
Pol I transcription; JHOC9, CX-5461 0.000001 M, 1 h
  47S precursor rRNA level, fold change relative to vehicle-treated controls: 0.3587 and 0.3508 and 0.2158
Pol I transcription; JHOC9, CX-5461 0.000003 M, 1 h
  47S precursor rRNA level, fold change relative to vehicle-treated controls: 0.08402 and 0.08216 and 0.06114
Pol I transcription; JHOC9, CX-5461 1E-09 M, 1 h
  47S precursor rRNA level, fold change relative to vehicle-treated controls: 1.047 and 1.024 and 0.8051
Pol I transcription; OV90, CX-5461 1E-09 M, 1 h
  47S precursor rRNA level, fold change relative to vehicle-treated controls: 1.356
Pol I transcription; RMG2, CX-5461 0.00000001 M, 1 h
  47S precursor rRNA level, fold change relative to vehicle-treated controls: 1.019 and 0.9292 and 0.7914
Pol I transcription; RMG2, CX-5461 0.00000003 M, 1 h
  47S precursor rRNA level, fold change relative to vehicle-treated controls: 0.8882 and 0.4552 and 0.4564
Pol I transcription; RMG2, CX-5461 0.0000001 M, 1 h
  47S precursor rRNA level, fold change relative to vehicle-treated controls: 0.8694 and 0.414 and 0.3672
Pol I transcription; RMG2, CX-5461 0.0000003 M, 1 h
  47S precursor rRNA level, fold change relative to vehicle-treated controls: 0.5159 and 0.1241 and 0.09886
Pol I transcription; RMG2, CX-5461 0.000001 M, 1 h
  47S precursor rRNA level, fold change relative to vehicle-treated controls: 0.2164 and 0.1124 and 0.1026
Pol I transcription; RMG2, CX-5461 0.000003 M, 1 h
  47S precursor rRNA level, fold change relative to vehicle-treated controls: 0.06697 and 0.02897 and 0.03341
Pol I transcription; RMG2, CX-5461 1E-09 M, 1 h
  47S precursor rRNA level, fold change relative to vehicle-treated controls: 0.7818 and 0.717 and 0.6208
Pol I transcription; TOV112D, CX-5461 0.00000001 M, 1 h
  47S precursor rRNA level, fold change relative to vehicle-treated controls: 1.178 and 0.9492
Pol I transcription; TOV112D, CX-5461 0.00000003 M, 1 h
  47S precursor rRNA level, fold change relative to vehicle-treated controls: 0.9271
Pol I transcription; TOV112D, CX-5461 0.0000001 M, 1 h
  47S precursor rRNA level, fold change relative to vehicle-treated controls: 1.01
Pol I transcription; TOV112D, CX-5461 0.0000003 M, 1 h
  47S precursor rRNA level, fold change relative to vehicle-treated controls: 0.388 and 0.509
Pol I transcription; TOV112D, CX-5461 0.000001 M, 1 h
  47S precursor rRNA level, fold change relative to vehicle-treated controls: 0.1661 and 0.2245 and 0.333
Pol I transcription; TOV112D, CX-5461 0.000003 M, 1 h
  47S precursor rRNA level, fold change relative to vehicle-treated controls: 0.1644 and 0.0787 and 0.1952
Pol I transcription; TOV112D, CX-5461 1E-09 M, 1 h
  47S precursor rRNA level, fold change relative to vehicle-treated controls: 1.079 and 1.012 and 1.217
OV90
  GI50: 5.17 µM
OVCAR3
  GI50: 0.012 µM
